Laboratory results published in US20220235064A1 (WELLMARKER BIO CO., LTD., priority 2019, published 2022).

Tests used:
[1] = tested on: cancer cell line SW620, in which mutated RON (Δ155) is expressed; assay: Cell-killing efficacy in RON-mutated cancer cell line SW620 (trypan blue); type: cell-based; settings: for cytotoxicity at 1 µM / cytotoxicity at 5 µM: Homo sapiens, SW-620, 48 hours, trypan blue, n=2, read-out: Cell death (%) Cancer cell line SW620
Experimental: (§1) Experimental Example 4: Measurement of Cell-Killing Efficacy of Example Compounds in RON-Mutated Cancer Cell Lines
(§2) Each of two colorectal cancer cell lines, that is, the cancer cell line HT29 (30038, KCLB, RPMI+10% FBS), in which mutated RON (Δ160) is expressed, and the cancer cell line SW620 (CCL-227, ATCC, RPMI+10% FBS), in which mutated RON (Δ155) is expressed, was dispensed into each 60 mm^2 dish at 1×10^5 cells. After 24 hours, the dish was treated with each of the example compounds at a concentration of 1 μM or 5 μM while performing medium exchange, and then reaction was allowed to proceed for 48 hours. After 48 hours, centrifugation was performed for 4 minutes at 1,500 rpm to collect cells and cell fluid. Thereafter, living cells and dead cells were quantified (n=2) using a trypan blue solution (15250-061, Gibco), and statistical analysis was performed using Excel-T-test. Here, as a negative control, only a solvent (0.10% DMSO) was used; and as a positive control, N-(4-(2-amino-3-chloropyridin-4-yloxy)-3-fluorophenyl)-4-ethoxy-1-(4-fluorophenyl)-2-oxo-1,2-dihydropyridine-3-carboxamide, which is the compound of Example 1 in WO 2008/058229 A1, was used.

[2] = tested on: cancer cell line KM12C, in which RON is activated; assay: Cell growth inhibitory ability in RON-activated cancer cell line (MTS); type: cell-based; settings: Homo sapiens, 48 hours, absorbance 490 nm
In short: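 KM12C cells (RON-activated, MEM with FBS) exposed to compound […] for 48 h. MTS added 24 h after treatment ended, incubated 4 h at 37° C, absorbance read at 490 nm. IC50 derived from absorbance.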

RON tyrosine kinase = target: T1, RON tyrosine kinase (Homo sapiens, UniProt Q04912); assay: Enzyme inhibitory activity against RON tyrosine kinase (TR-FRET); type: biochemical; settings: RON (Carna Bioscience)
T1 construct: purchased Carna Bioscience
T1 sequence (Q04912 25-1400): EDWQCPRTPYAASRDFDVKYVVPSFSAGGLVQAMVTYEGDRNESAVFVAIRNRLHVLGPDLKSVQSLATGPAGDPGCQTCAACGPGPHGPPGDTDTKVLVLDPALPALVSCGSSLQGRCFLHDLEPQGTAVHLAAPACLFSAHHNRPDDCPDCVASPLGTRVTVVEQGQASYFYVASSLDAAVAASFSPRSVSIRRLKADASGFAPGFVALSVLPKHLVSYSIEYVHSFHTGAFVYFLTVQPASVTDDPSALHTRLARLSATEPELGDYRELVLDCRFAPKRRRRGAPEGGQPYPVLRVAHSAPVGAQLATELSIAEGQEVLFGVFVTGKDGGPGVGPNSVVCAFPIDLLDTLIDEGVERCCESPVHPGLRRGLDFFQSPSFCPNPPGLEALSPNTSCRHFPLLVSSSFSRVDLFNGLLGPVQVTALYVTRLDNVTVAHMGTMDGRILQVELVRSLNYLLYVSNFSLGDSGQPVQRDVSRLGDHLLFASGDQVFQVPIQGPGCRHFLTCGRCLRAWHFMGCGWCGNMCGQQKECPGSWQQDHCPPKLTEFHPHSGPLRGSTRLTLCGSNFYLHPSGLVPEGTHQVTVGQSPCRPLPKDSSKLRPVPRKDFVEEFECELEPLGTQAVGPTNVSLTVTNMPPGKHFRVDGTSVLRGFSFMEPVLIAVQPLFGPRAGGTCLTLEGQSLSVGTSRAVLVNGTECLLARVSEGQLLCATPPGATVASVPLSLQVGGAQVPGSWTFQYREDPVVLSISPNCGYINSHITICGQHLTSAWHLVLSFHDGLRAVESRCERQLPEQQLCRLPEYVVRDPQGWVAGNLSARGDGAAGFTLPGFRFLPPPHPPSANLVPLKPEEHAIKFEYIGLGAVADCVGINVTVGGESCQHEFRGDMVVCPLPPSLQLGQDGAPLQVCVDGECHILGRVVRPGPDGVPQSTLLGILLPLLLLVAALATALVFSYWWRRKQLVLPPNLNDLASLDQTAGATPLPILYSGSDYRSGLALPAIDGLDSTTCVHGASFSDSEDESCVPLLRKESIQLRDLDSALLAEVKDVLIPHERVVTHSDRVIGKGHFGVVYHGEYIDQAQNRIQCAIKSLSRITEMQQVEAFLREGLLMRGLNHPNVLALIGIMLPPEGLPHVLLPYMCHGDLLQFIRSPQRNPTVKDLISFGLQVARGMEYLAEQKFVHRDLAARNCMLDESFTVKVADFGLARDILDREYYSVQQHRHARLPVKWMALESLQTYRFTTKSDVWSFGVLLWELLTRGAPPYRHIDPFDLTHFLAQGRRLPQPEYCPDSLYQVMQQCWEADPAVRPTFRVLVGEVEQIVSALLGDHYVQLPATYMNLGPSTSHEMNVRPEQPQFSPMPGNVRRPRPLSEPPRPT
In short: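 Recombinant RON was preincubated with compound for 15 min at RT in 50 mM HEPES pH 7.5, 10 mM MgCl2, 1 mM EGTA, 2 mM DTT, 0.01% Tween-20. Enzyme (0.4 nM), ATP (60 μM) and tyrosine peptide (400 nM) were prepared at 2×, 4× and 4× final. After 60 min at RT, EDTA/Eu-anti-phosphotyrosine stop; IC50 from 665 nm TR-FRET emission.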

[3] = tested on: cancer cell line KM12C, in which RON is activated; assay: Cell-killing efficacy in RON-activated cancer cell line (trypan blue); type: cell-based; settings: for cytotoxicity at 1 µM / cytotoxicity at 5 µM: Homo sapiens, 48 hours, trypan blue, n=2, read-out: Cell death (%) Cancer cell line KM12C
In short: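 KM12C cells seeded 1×10^5 per 60 mm^2 dish in MEM + 10% FBS, then exposed 24 h later to compound at 1 μM or 5 μM for 48 h.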

[4] = tested on: cancer cell line HT29, in which mutated RON (Δ160) is expressed; assay: Cell-killing efficacy in RON-mutated cancer cell line HT29 (trypan blue); type: cell-based; settings: for cytotoxicity at 1 µM / cytotoxicity at 5 µM: Homo sapiens, HT-29, 48 hours, trypan blue, n=2, read-out: Cell death (%) Cancer cell line HT29
Experimental: as §1, §2

IC50 [2] [nM]	IC50 (RON tyrosine kinase) [nM]	Structure (SMILES)	cytotoxicity at 1 µM [1] [%]	cytotoxicity at 5 µM [1] [%]	cell-killing effect (in words) ([1]; SW620, as compared with the positive control)	cytotoxicity at 1 µM [3] [%]	cytotoxicity at 5 µM [3] [%]	cell-killing effect (in words) ([3]; as compared with the positive control)	cell-killing effect (in words) ([4]; HT29, as compared with the positive control)	cytotoxicity at 1 µM [4] [%]	cytotoxicity at 5 µM [4] [%]
6	3.86	COc1cc2c(Oc3ccc(NC(=O)c4c5c(cn(-c6ccc(F)cc6)c4=O)CCO5)cc3F)ccnc2cc1NCCN1CCOCC1 [Example 187, N-(3-Fluoro-4-((6-methoxy-7-((2-morpholinoethyl)amino)quinolin-4-yl)oxy)phenyl)-5-(4-fluorophenyl)-6-oxo-2,3,5,6-tetrahydrofuro[3,2-c]pyridine-7-carboxamide]	23.9	50.5	high cell-killing effect	20.4	60	high cell-killing effect	high cell-killing effect	8.4	34.3
2	5.92	COc1cc2c(Oc3ccc(NC(=O)c4c5c(cn(-c6ccc(F)cc6)c4=O)CCO5)cc3F)ccnc2cc1N [Example 181, N-(4-((7-Amino-6-methoxyquinolin-4-yl)oxy)-3-fluorophenyl)-5-(4-fluorophenyl)-6-oxo-2,3,5,6-tetrahydrofuro[3,2-c]pyridine-7-carboxamide]	11.3	35		14.6	36.8			10.2	99.1
